Experimental data from patent US20230025003A1, “DIABETES THERAPY TARGETING ABNORMAL STEM CELLS” (Biozipcode, Inc., priority 2019, published 2023).

System: diabetic patients (type 1 and type 2 diabetes mellitus)
Experiment: Research Plan 2: therapy of diabetes mellitus targeting a bone marrow-derived abnormal hematopoietic stem cell
Format: in vivo, human
Settings: type 1 and type 2 diabetic patients; 12 weeks therapy; predicted result

## insulin alone: insulin therapy alone (control group of Research Plan 2)
  Effect of eliminating an abnormal hematopoietic stem cell: not eliminated
  Effect of healing diabetes mellitus: not observed
  Therapeutic effect on a complication: observed to some extent, but the complication does not heal
